Patent publication US10288602B2, “Screening method, a kit, a method of treatment and a compound for use in a method of treatement” (ATROGI AB, priority 2013, dated 2019)

Key:
L6 myotubes = assay: Glucose uptake (3H-2-deoxy-glucose) in L6 myoblasts and L6 myotubes; type: cell-based; details: for glucose uptake in L6 myoblasts and L6 myotubes / mTORC2 activity represented by glucose uptake: FIG. 2; for mTORC2 activity represented by glucose uptake: L6 myoblasts and myotubes, reference: cells not contacted; for effect on GPCR and insulin-stimulated glucose uptake: indinavir 100M
Procedure: (§1) Glucose uptake was measured in CHO Glut 4 (Chinese Hamster Ovary cells transfected to overexpress GLUT4) and L6-myotubes grown in 12-well plates using ^3H-2-dexoy-glucose as previously described (Nevzorova et al. 2006, Dehvari et al. 2011, Nevzorova et al. 2002) with minor modifications. L6-cells were differentiated for 7-8 days before the experiment, serum-starved over night in media containing 0.5% fatty-acid free BSA and stimulated with test compounds for totally 2 h, unless otherwise stated. The test 3′ compounds used in the experiment were: N-[5-(4,5-dihydro-1H-imidazol-2yl)-2-hydroxy-5,6,7,8-tetrahydro naphthalen-1-yl] methanesulfonamide hydrobromide (A61603), noradrenaline (NA), insulin, oxymetazoline (oxy), and 5-(methylamino)-2-({(2R,3R,6S,8S,9R,11R)-3,9,11-trimethyl-8-[(S)-1-methyl-2-oxo-2-(l H-pyrrol-2-yl)ethyl]-1,7-dioxaspiro[5.5]undec-2-yl}methyl)-1,3-benzoxazole-4-carboxylic acid (also referred to as Calcimycin) (A23187).
(§2) Inhibitors were added 30 min before stimulation. 25 min before the end of the experiment, cells were washed twice in warm PBS and kept in glucose-free DMEM together with the different drugs for 10 min before 50 nM ^3H-2-deoxy-glucose was added for additional 6 minutes. The reaction was terminated by washing the cells in ice-cold PBS three times. Cells were lysed in 0.2 NaOH for 1 h in 60° C. and the radioactivity detected by liquid scintillation (scintillation buffer Emulsifier Safe, Perking Elmer and analysis is a Tri-Carb® 2800TR from Perkin Elmer).

mTORC2 = assay: Western blot of mTOR phosphorylation (S2448, S2481) in L6 myotubes; type: cell-based; details: for mTORC2 activity represented by phosphorylation of mTORC2: FIG. 13, reference: cells not brought into contact with the compound
Procedure: (§3) L6 myotubes (FIG. 5) and CHO GLUT4 cells (FIG. 6) in 12-well plates were used for western blotting. Cells were serum-starved overnight before experiment. Immunoblotting was performed as previously described (Nevzorova et al. 2006, […] et al. 2011, Nevzorova et al. 2002). Primary antibodies (Akt, phospho-Akt T308, phospho-Akt S473, AS 160, GLUT4, phospho-mTOR […], phospho-mTOR […], raptor, and rictor diluted 1:1000) were all from Cell Signaling Technology, Inc and were detected using a secondary antibody (horseradish peroxidase-linked anti-rabbit IgG, from Cell Signaling Technology, Inc) diluted 1:2000 and measured using enhanced chemiluminescence (ECL, Amersham Biosciences).

Akt [1] = assay: Western blot of Akt phosphorylation (T308, S473) in CHO GLUT4 cells; type: cell-based, Chinese Hamster; details: for Akt p-S473 % basal: CHO GLUT4, 10 min, approximate values from FIG. 6B, insulin, NA, oxy 0.1 μM, A61603 0.01 μM; for Akt activity represented by phosphorylation of Akt: CHO GLUT4 cells, FIG. 6, 10 min, reference: cells not contacted
Procedure: as §3

PIP3 = PIP3 immunofluorescence in permeabilised L6 cells; type: cell-based; details: FIG. 3
Procedure: PIP3 was visualized in permeabilised L6 cells (0.5% Triton X-100 in water, 15 min) blocked with 10% rat serum in TBS overnight at 4° C. Mouse anti-PIP3 conjugated to a biotinylated goat anti-mouse IgM diluted 1:100) was incubated for 1 h at 37° C., cells washed three times (10% rat serum in TBS), secondary antibody added (streptavidin-Alexa Fluor® 488 1:2000 in TBS, 30 min, 37° C.). Slides were mounted with ProLong® Gold antifade reagent (Invitrogen).

AS160 = assay: Western blot of AS160 phosphorylation (T642) in L6 myotubes; type: cell-based; details: FIG. 7; for Akt activity represented by phophorylation of Akt substrate: AS160 p-T642, L6 myotubes, reference: cells not contacted; for AS160 phosphorylation: L6 myotubes
Procedure: as §3

Akt [2] = assay: Western blot of Akt phosphorylation (T308, S473) in L6 myotubes; type: cell-based; details: for Akt activity represented by phosphorylation of Akt: FIG. 5, 10 min, 30 min, 2 h, reference: cells not contacted
Procedure: as §3

GLUT4 = GLUT4 in plasma membrane (GLUT4 translocation) in L6 myotubes; type: cell-based; details: for mTORC2 activity represented by GLUT translocation: FIG. 20, reference: cells not contacted
CHO GLUT4 cells = assay: Glucose uptake (3H-2-deoxy-glucose) in CHO GLUT4 cells; type: cell-based, Chinese Hamster; details: for mTORC2 activity represented by glucose uptake: CHO GLUT4 cells, reference: cells not contacted
Procedure: as §1, §2

skeletal muscle = assay: [3H]-2DG glucose uptake in mouse skeletal muscle in vivo; details: WT 129sv mice, 10 mg/kg, 10 min before insulin or isoproterenol 1 mg/kg; FIG. 12
Procedure: After 20 min [^3H]-2DG (130 μCi/kg) was injected. Muscles were sampled 1 h later and lysed in 0.5M NaOH.
Glucose uptake was measured by liquid scintillation counting.

[3] = tested on: other members of the PI3K/PIKK family; details: at up to 1 μM; Garcia-Martinez et al. 2009; cited from earlier work
rat soleus muscle = assay: 3-O-methylglucose uptake in intact rat soleus muscle ex vivo; details: 30 min preincubation, then insulin or isoproterenol 1 h; FIG. 11
Procedure: Soleus muscles were dissected from Sprague-Dawley rats and suspended in Krebs-Henseleit bicarbonate (KHB) buffer (118.5 mM NaCl, 4.7 mM KCl, 1.2 mM KH2PO4, 25 mM NaHCO3, 2.5 mM CaCl2, 1.2 mM MgSO, 5 mM HEPES) in organ baths containing 30 ml KHB containing 5 mM glucose and 15 mM mannitol, bubbled with 95% O2/5% CO2 (pH 7.4) and maintained at 37° C. […] Muscles were rinsed with KHB (20 mM mannitol) for 10 min, then incubated in KHB (8 mM 3-O-methylglucose and 12 mM mannitol with 438 μCi/mmol 3-O-methyl[^3H]glucose (80.2 Ci/mmol; PerkinElmer) and 42 μCi/mmol [^14C] mannitol (58.8 mCi/mmol; PerkinElmer, USA)) for 12 min. Muscles were then rinsed with PBS and frozen in liquid nitrogen, weighed and dissolved in 1 mL of 0.5M NaOH at 60′C. ^3H and ^14C were measured by liquid scintillation counting. Total muscle 3-O-methylglucose and extracellular space were measured as described previously (23). Intracellular 3-O-methylglucose accumulation was calculated by: (Total muscle 3-O-methylglucose)−(extracellular 3-O-methylglucose)=intracellular 3-O-methylglucose. This is then expressed as a rate of 3-O-methylglucose transport per mL of intracellular water per hour.

[4] = Glucose tolerance test in Goto-Kakizaki GK-rats; type: in vivo, rat; details: in drinking water 4 days, 60, 90 and 120 minutes after glucose, vs untreated animals, FIG. 21
Procedure: Goto-Kakizaki GK-rats, showing impaired glucose tolerance form an established model of type 2 diabetes. GK-rats were split into two groups, one of which was treated with the GPCR agonist clenbuterol in the drinking water for 4 days prior to a glucose tolerance test.

[5] = L6 myotubes, FIG. 19, cytochalasin B 10 μM

insulin
glucose uptake in L6 myoblasts and L6 myotubes (L6 myotubes): increased
mTORC2 activity represented by glucose uptake (L6 myotubes): + (2)
phosphorylation of mTOR (sites S2448, S2481) (mTORC2; FIG. 13): phosphorylation of mTOR at both S2448 and S2481
mTORC2 activity represented by phosphorylation of mTORC2 (mTORC2): + (13)
Akt p-S473 % basal (Akt [1]): 170 % basal
Akt activity represented by phosphorylation of Akt (Akt [1]): + (5, 6)
PIP3 content (PIP3): increased
Akt activity represented by phophorylation of Akt substrate (AS160): + (7)
AS160 phosphorylation (AS160): phosphorylated
Akt activity represented by phosphorylation of Akt (Akt [2]; L6 myotubes): + (5, 6)
Akt phosphorylation at T308 and S473 (Akt [2]; all time points examined, FIG. 5, FIG. 6): increased
mTORC2 activity represented by GLUT translocation (GLUT4): + (20)

NC[C@H](O)c1ccc(O)c(O)c1 [noradrenaline]
Akt p-S473 % basal (Akt [1]): 130 % basal
Akt activity represented by phosphorylation of Akt (Akt [1]): − (6)
mTORC2 activity represented by glucose uptake (CHO GLUT4 cells; FIG. 1): + (1)
glucose uptake in CHO glut 4 (CHO GLUT4 cells; FIG. 1): increases

COc1ccc(-c2ccc3c(N4CCOCC4)nc(N4C[C@@H](C)O[C@@H](C)C4)nc3n2)cc1CO [KU0063794]
effect on insulin and GPCR stimulated glucose-uptake in skeletal muscle in-vivo (skeletal muscle): inhibits
inhibition of other members of the PI3K/PIKK family [3]: does not inhibit
effect on GPCR stimulated glucose-uptake (L6 myotubes; L6 myotubes, FIG. 10A): inhibits
effect on insulin- and GPCR-stimulated mTOR phosphorylation at S2448 and S2481 (mTORC2; FIG. 13): abolished
effect on insulin and GPCR stimulated glucose-uptake in intact soleus muscle ex-vivo (rat soleus muscle): inhibits
effect on insulin-stimulated Akt phosphorylation at S473 (Akt [2]; 100 nM, L6 myotubes, FIG. 9): decreased
effect on insulin-stimulated phosphorylation of Akt at T308 (Akt [2]; 100 nM, L6 myotubes, FIG. 9): no effect
effect on insulin and GPCR stimulated GLUT4 translocation (GLUT4; FIG. 20): significantly inhibits
effect on GPCR stimulated glucose-uptake (CHO GLUT4 cells; CHO glut 4, FIG. 10B): inhibits

C=C1[C@@H](C)[C@H]2[C@H](Cc3ccccc3)NC(=O)[C@]23OC(=O)/C=C/[C@H](O)CCC[C@@H](C)C/C=C/[C@H]3[C@@H]1O [cytochalasin B]
block of basal glucose uptake (L6 myotubes; L6 myotubes, FIG. 19, cytochalasin B 10 μM, indinavir): ~40%
effect on GPCR and insulin-stimulated glucose uptake (L6 myotubes; [5]): markedly reduced

Cc1cc(C(C)(C)C)c(O)c(C)c1CC1=NCCN1 [oxymetazoline]
Akt p-S473 % basal (Akt [1]): 135 % basal
Akt activity represented by phosphorylation of Akt (Akt [1]): − (6)
mTORC2 activity represented by glucose uptake (CHO GLUT4 cells; FIG. 1): + (1)

CO[C@H]1C[C@@H]2CC[C@@H](C)[C@@](O)(O2)C(=O)C(=O)N2CCCC[C@H]2C(=O)O[C@H]([C@H](C)C[C@@H]2CC[C@@H](O)[C@H](OC)C2)CC(=O)[C@H](C)/C=C(\C)[C@@H](O)[C@@H](OC)C(=O)[C@H](C)C[C@H](C)/C=C/C=C/C=C/1C [rapamycin]
effect on insulin mediated or isoproterenol mediated glucose uptake (L6 myotubes; short term treatment, L6 myotubes, FIG. 14): no effect

Br.CS(=O)(=O)Nc1c(O)ccc2c1CCCC2C1=NCCN1 (centres unmarked) [A61603, N-[5-(4,5-dihydro-1H-imidazol-2yl)-2-hydroxy-5,6,7,8-tetrahydronaphthalen-1-yl] methanesulfonamide hydrobromide]
Akt p-S473 % basal (Akt [1]): 135 % basal
Akt activity represented by phosphorylation of Akt (Akt [1]): − (6)
mTORC2 activity represented by glucose uptake (CHO GLUT4 cells; FIG. 1): + (1)

CC(C)(C)NC(=O)[C@@H]1CN(Cc2cccnc2)CCN1C[C@@H](O)C[C@@H](Cc1ccccc1)C(=O)N[C@H]1c2ccccc2C[C@H]1O [indinavir]
effect on GPCR and insulin-stimulated glucose uptake (L6 myotubes; [5]): markedly reduced

CC(C)NCC(O)c1ccc(O)c(O)c1 (centres unmarked) [isoproterenol]
glucose uptake in L6 myoblasts and L6 myotubes (L6 myotubes): increased
mTORC2 activity represented by glucose uptake (L6 myotubes): + (1, 2)
phosphorylation of mTOR (sites S2448, S2481) (mTORC2; FIG. 13): phosphorylation only at S2481
mTORC2 activity represented by phosphorylation of mTORC2 (mTORC2): + (13)
PIP3 content (PIP3): not isoproterenol increased PIP3 content
Akt activity represented by phophorylation of Akt substrate (AS160): − (7)
AS160 phosphorylation (AS160): not isoproterenol treatment
Akt activity represented by phosphorylation of Akt (Akt [2]; L6 myotubes): − (5)
mTORC2 activity represented by GLUT translocation (GLUT4): + (20)
mTORC2 activity represented by glucose uptake (CHO GLUT4 cells; FIG. 1): + (1, 2)

O=C(Nc1cccc(Nc2ncc(Br)c(NCCc3cnc[nH]3)n2)c1)N1CCCC1 [BX-912]
effect on insulin-mediated T308-Akt phosphorylation (Akt [2]; L6 myotubes, FIG. 8): significantly inhibited
effect on S473-Akt phosphorylation (Akt [2]; L6 myotubes, insulin, FIG. 8): no effect

CC(C)(C)NCC(O)c1cc(Cl)c(N)c(Cl)c1 (centres unmarked) [clenbuterol]
blood glucose levels in glucose tolerance test [4]: greatly improved

CCN(CC)CCCCN1c2ccccc2Oc2ccc(Cl)cc21 [Akt inhibitor X]
effect on insulin-stimulated glucose uptake (L6 myotubes; L6 myotubes, inhibitor 10 μM, FIG. 4): inhibited
effect on GPCR-mediated glucose uptake (L6 myotubes; L6 myotubes, inhibitor 10 μM, isoproterenol, FIG. 4): not GPCR-mediated glucose uptake
